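Compound exposure: 48 hours, 5 concentrations, 96-well plates. GI50 = concentration required for 50% inhibition of growth.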 The source made the active and inactive calls. Rule as the data show it: active = GI50 up to about 1.1 µM and inactive = higher.
Key:
Experiment in all cases: NCI-60 cell line screen, 48 h
[1] = tested on: NCI-H522
[2] = tested on: 786-0
[3] = tested on: M14
[4] = tested on: K562
[5] = tested on: SNB-75
[6] = tested on: SK-MEL-2
[7] = tested on: RPMI-8226
[8] = tested on: T47D
[9] = tested on: NCI-H226
[10] = tested on: SF-295
[11] = tested on: SF-268
[12] = tested on: HCT-15
[13] = tested on: MCF7
[14] = tested on: CCRF-CEM
[15] = tested on: PC-3
[16] = tested on: U-251
[17] = tested on: SK-MEL-28
[18] = tested on: OVCAR-3
[19] = tested on: SW-620
[20] = tested on: TK-10

Compound | GI50 [1] | GI50 [2] | GI50 [3] | GI50 [4] | GI50 [5] | GI50 [6] | GI50 [7] | GI50 [8] | GI50 [9] | GI50 [10] | GI50 [11] | GI50 [12] | GI50 [13] | GI50 [14] | GI50 [15] | GI50 [16] | GI50 [17] | GI50 [18] | GI50 [19] | GI50 [20]
COc1cc2c(cc1OC)C(=O)/C(=C/c1cc(C)c(O)c(C)c1)C2 | < 0.01 µM (active) | < 0.0184 µM (active) | < 0.01 µM (active) | < 0.01 µM (active) | < 0.01 µM (active) | < 0.01 µM (active) | < 0.01 µM (active) | > 100 µM (inactive) | 23.8 µM (inactive) | < 0.018 µM (active) | < 0.0143 µM (active) | < 0.01 µM | < 0.0148 µM (active) | < 0.01 µM (active) | < 0.01 µM (active) | < 0.01 µM (active) | > 75.7 µM (inactive) | 0.0115 µM (active) | < 0.0106 µM (active) | > 76.7 µM (inactive)
O=C1Nc2ccccc2/C1=N/NC(=S)Nc1ccc(Cl)cc1 | 57 µM (inactive) | 22.3 µM (inactive) | 15 µM (inactive) | 29.9 µM (inactive) | 33 µM (inactive) | 24.5 µM (inactive) | 49.7 µM (inactive) | 83 µM (inactive) | 22.2 µM (inactive) | 23.7 µM (inactive) | 31.6 µM (inactive) | 20.2 µM | 48.6 µM (inactive) | 22.8 µM (inactive) | 33.7 µM (inactive) | 23.2 µM (inactive) | > 100 µM (inactive) | 25.8 µM (inactive) | 29.4 µM (inactive) | 16.1 µM (inactive)
Clc1ccc(OCC2NC3CCC2CC3)cn1 (stereo not given) | 19 µM (inactive) | 18.3 µM (inactive) | 21.2 µM (inactive) | 17.5 µM (inactive) | 61 µM (inactive) | 18 µM (inactive) | 13.4 µM (inactive) | 29.8 µM (inactive) | > 100 µM (inactive) | 19.8 µM (inactive) | 51.6 µM (inactive) | 20.7 µM | 17.9 µM (inactive) | 25 µM (inactive) | 25.6 µM (inactive) | 16.3 µM (inactive) | 37.8 µM (inactive) | 60.4 µM (inactive) | 22.7 µM (inactive) | 42.3 µM (inactive)
C#CCn1c(I)cc2c(c1=O)COC(=O)[C@]2(O)CC | > 100 µM (inactive) | > 100 µM (inactive) | > 100 µM (inactive) | > 100 µM (inactive) | > 100 µM (inactive) | > 100 µM (inactive) | > 100 µM (inactive) | > 100 µM (inactive) | > 100 µM (inactive) | > 100 µM (inactive) | > 100 µM (inactive) | > 100 µM | > 100 µM (inactive) | > 100 µM (inactive) | > 100 µM (inactive) | > 100 µM (inactive) | > 100 µM (inactive) | > 100 µM (inactive) | > 100 µM (inactive) | > 100 µM (inactive)
O=CNNC(=O)CSc1nc2ccc(I)cc2c(=O)n1Cc1ccccc1 | 20.9 µM (inactive) | 31.3 µM (inactive) | 31.6 µM (inactive) | 8.79 µM (inactive) | 45 µM (inactive) | 20.9 µM (inactive) | < 0.01 µM (active) | 33.4 µM (inactive) | 49.3 µM (inactive) | 40.6 µM (inactive) | 35.4 µM (inactive) | 40.7 µM | 37.2 µM (inactive) | 23.7 µM (inactive) | 39 µM (inactive) | 36.6 µM (inactive) | 79.8 µM (inactive) | 21.8 µM (inactive) | 44.8 µM (inactive) | 38.6 µM (inactive)
Cc1cn(CCCCCCC2=NCCCN2)c(=O)[nH]c1=O | > 100 µM (inactive) | > 100 µM (inactive) | > 100 µM (inactive) | > 100 µM (inactive) | > 100 µM (inactive) | > 100 µM (inactive) | > 100 µM (inactive) | > 100 µM (inactive) | > 100 µM (inactive) | > 100 µM (inactive) | > 100 µM (inactive) | > 100 µM | > 100 µM (inactive) | > 100 µM (inactive) | > 100 µM (inactive) | > 100 µM (inactive) | > 100 µM (inactive) | > 100 µM (inactive) | > 100 µM (inactive) | > 100 µM (inactive)
CC1=CC[C@@]2(C)CC[C@](O)(C(C)C)C2C(OC(=O)c2ccccc2)C1 (stereo not given in full) | 16.5 µM (inactive) | 18.5 µM (inactive) | 18.7 µM (inactive) | 19.5 µM (inactive) | 17.5 µM (inactive) | 14.4 µM (inactive) | 16 µM (inactive) | 20.1 µM (inactive) | 23.8 µM (inactive) | 15.6 µM (inactive) | 23.2 µM (inactive) | 18.7 µM | 17.9 µM (inactive) | 23 µM (inactive) | 18.7 µM (inactive) | 27.8 µM (inactive) | 24 µM (inactive) | 17.5 µM (inactive) | 22.3 µM (inactive) | 18.3 µM (inactive)
O=C1Oc2ccccc2C(=O)/C1=C/NC(=S)NCCc1ccccc1 | 23.3 µM (inactive) | 38.7 µM (inactive) | 55 µM (inactive) | > 100 µM (inactive) | 22.7 µM (inactive) | 19.4 µM (inactive) | 35.2 µM (inactive) | 35.1 µM (inactive) | > 100 µM (inactive) | 38.5 µM (inactive) | 77.1 µM (inactive) | 34.6 µM | 56.1 µM (inactive) | 27.9 µM (inactive) | 39.8 µM (inactive) | 53.6 µM (inactive) | > 100 µM (inactive) | 67.1 µM (inactive) | 42.6 µM (inactive) | 32.1 µM (inactive)
COC(=O)c1c2c(cc3c1CCC3)CCC2 | 46.6 µM (inactive) | 80.7 µM (inactive) | > 100 µM (inactive) | 29.6 µM (inactive) | 28.4 µM (inactive) | 24.8 µM (inactive) | 20.2 µM (inactive) | 13.3 µM (inactive) | 54.7 µM (inactive) | 29.9 µM (inactive) | 95.7 µM (inactive) | 57.8 µM | 38.7 µM (inactive) | 20.1 µM (inactive) | 44.7 µM (inactive) | 51.9 µM (inactive) | 53.6 µM (inactive) | > 100 µM (inactive) | > 100 µM (inactive) | 57.4 µM (inactive)
